Target: T1, GPBAR1 (TGR5) (Homo sapiens, UniProt Q8TDU6)
T1 sequence (Q8TDU6 1-330): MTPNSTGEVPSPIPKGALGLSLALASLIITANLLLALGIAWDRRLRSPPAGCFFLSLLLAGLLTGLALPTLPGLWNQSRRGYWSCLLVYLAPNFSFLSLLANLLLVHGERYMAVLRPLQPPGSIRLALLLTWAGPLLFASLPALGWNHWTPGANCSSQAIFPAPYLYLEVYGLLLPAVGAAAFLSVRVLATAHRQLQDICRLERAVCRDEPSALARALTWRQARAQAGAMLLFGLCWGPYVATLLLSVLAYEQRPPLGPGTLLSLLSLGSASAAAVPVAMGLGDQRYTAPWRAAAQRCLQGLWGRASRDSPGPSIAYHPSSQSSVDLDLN
Test: AlphaScreen cAMP assay in CHO cells expressing human GPBAR1; no response in parental CHO cells

BIX02694
EC50: 9 nM

From publication PMC4072711, “A GPBAR1 (TGR5) Small Molecule Agonist Shows Specific Inhibitory Effects on Myeloid Cell Activation In Vitro and Reduces Experimental Autoimmune Encephalitis (EAE) In Vivo” (PLoS ONE, 2014)
